Measurements taken from patent publication US12172974B2 (Biohaven Pharmaceutical Holding Company Ltd., priority 2012, dated 2024).

test: Stability in Simulated Gastric Fluid (SGF); assay type: in vitro ADME; conditions: 37° C., 0.01 mg/mL
Description: (§1) Stability in Simulated Gastric Fluid (SGF) and Simulated Intestinal Fluid (SIF). Procedure from Baudy et. al. (J. Med. Chem. 2009, 52, 771-778) used. The physiological stability of prodrugs was determined by examining the stability of the compound in SGF, and SIF at 37° C. The compounds were prepared in a 9:1 mixture of the appropriate test component (SGF, SIF) and acetonitrile to a final concentration of 0.01 mg/mL. The samples were thoroughly mixed and maintained at 37° C. Each sample was injected consecutively onto an Agilent 1100 system (Luna C18, 3 μm, 50 mm×3 mm; 1 mL/min; mobile phase of 0.1% trifluoroacetic acid in water/0.1% trifluoroacetic acid in acetonitrile) after a 3 h period. The percent remaining of prodrug was calculated by comparing the area of prodrug compound versus riluzole generated. The identities of the parent compounds and conversion products were confirmed by LC/MS.

Row | Structure (SMILES) | SGF (3 hours): percent of prodrug metabolized to riluzole
1 | CCCCOC(=O)Nc1nc2ccc(OC(F)(F)F)cc2s1 [Cpd 15, (6-Trifluoromethoxy-benzothiazol-2-yl)-carbamic acid butyl ester] | 0%
2 | CC(C)COC(=O)Nc1nc2ccc(OC(F)(F)F)cc2s1 [Cpd 16, (6-Trifluoromethoxy-benzothiazol-2-yl)-carbamic acid isobutyl ester] | 5%

The remaining lines, values ahead:

Row | SGF (3 hours): percent of prodrug metabolized to riluzole | Structure (SMILES)
3 | 0% | CCCCCCOC(=O)Nc1nc2ccc(OC(F)(F)F)cc2s1 [Cpd 17, (6-Trifluoromethoxy-benzothiazol-2-yl)-carbamic acid hexyl ester]
4 | 0% | O=C(CCC(=O)Nc1nc2ccc(OC(F)(F)F)cc2s1)NCCN1CCOCC1 [Cpd 24, N-(2-Morpholin-4-yl-ethyl)-N′-(6-trifluoromethoxy-benzothiazol-2-yl)-succinamide]
5 | 0% | NCC1(CC(=O)Nc2nc3ccc(OC(F)(F)F)cc3s2)CCCCC1 [Cpd 29, 2-(1-Aminomethyl-cyclohexyl)-N-(6-trifluoromethoxy-benzothiazol-2-yl)-acetamide]

test: Stability in Simulated Intestinal Fluid (SIF); assay type: in vitro ADME; conditions: 37° C., 0.01 mg/mL
Description: as §1

Row | Structure (SMILES) | SIF (3 hours): percent of prodrug metabolized to riluzole
6 | CCCCOC(=O)Nc1nc2ccc(OC(F)(F)F)cc2s1 [Cpd 15, (6-Trifluoromethoxy-benzothiazol-2-yl)-carbamic acid butyl ester] | 0%
7 | CC(C)COC(=O)Nc1nc2ccc(OC(F)(F)F)cc2s1 [Cpd 16, (6-Trifluoromethoxy-benzothiazol-2-yl)-carbamic acid isobutyl ester] | 0%

Now from value to compound:

Row | SIF (3 hours): percent of prodrug metabolized to riluzole | Structure (SMILES)
8 | 60% | O=C(CCC(=O)Nc1nc2ccc(OC(F)(F)F)cc2s1)NCCN1CCOCC1 [Cpd 24, N-(2-Morpholin-4-yl-ethyl)-N′-(6-trifluoromethoxy-benzothiazol-2-yl)-succinamide]
9 | 50% | NCC1(CC(=O)Nc2nc3ccc(OC(F)(F)F)cc3s2)CCCCC1 [Cpd 29, 2-(1-Aminomethyl-cyclohexyl)-N-(6-trifluoromethoxy-benzothiazol-2-yl)-acetamide]

test: Metabolic stability in pooled mouse liver microsomes; assay type: in vitro ADME; conditions: mouse liver microsomes 0.5 mg/mL, 1 uM, 37° C., NADPH
Description: (§2) Metabolic Stability: In vitro metabolic stability was determined in pooled mouse or human liver microsomes (BD Gentest) at a protein concentration of 0.5 mg/mL in reaction buffer (100 mM KH2PO4, pH 7.4 and 12 mM MgCl2). Each drug candidate was added to a final concentration of 1 uM. This mixture was pre-warmed to 37° C. for 10 minutes prior to starting the reaction with the addition of β-Nicotinamide adenine dinucleotide 2′-phosphate reduced (NADPH) to a final concentration of 1 mM. A parallel incubation lacking NADPH served as the control. After incubation for 30 min at 37° C., the reactions were quenched by the addition of acetonitrile containing 0.1% formic acid and internal standard, vortex mixed for 2 minutes and centrifuged at 4000 rpm for 10 minutes to pellet the precipitated protein. The resulting supernatant containing the drug candidate and its potential metabolites was diluted 5-fold with water containing 0.1% formic acid and submitted to LC-MS/MS analysis. […]
(§3) LC-MS/MS Analysis: An aliquot from each incubation was analyzed by LC-MS/MS with SRM detection in the positive ionization mode using an ABSciex API 5500 QTrap Mass Spectrometer interfaced via the ABSciex Turbo V IonSpray source (ESI) to an Eksigent ExpressHT LC system. […] A fast gradient, from 15 to 85% organic in 2.5 minutes, with run time of 5.0 minutes, and flow rate of 50 ul/min was utilized. Peak areas were integrated using MultiQuant v2.0 software from ABSciex.

Row | Metabolic Stability mouse (30 minutes): percent of prodrug metabolized to riluzole | Structure (SMILES)
10 | 4% | NCC(=O)Nc1nc2ccc(OC(F)(F)F)cc2s1 [Cpd 1, 2-Amino-N-(6-trifluoromethoxy-benzothiazol-2-yl)-acetamide]
11 | 24% | N[C@H](COCc1ccccc1)C(=O)Nc1nc2ccc(OC(F)(F)F)cc2s1 [Cpd 5, (R)-2-Amino-3-benzyloxy-N-(6-trifluoromethoxy-benzothiazol-2-yl)-propionamide]
12 | 2% | N[C@@H](Cc1ccccc1)C(=O)Nc1nc2ccc(OC(F)(F)F)cc2s1 [Cpd 9, (S)-2-Amino-3-phenyl-N-(6-trifluoromethoxy-benzothiazol-2-yl)-propionamide]
13 | 53% | CCCCOC(=O)Nc1nc2ccc(OC(F)(F)F)cc2s1 [Cpd 15, (6-Trifluoromethoxy-benzothiazol-2-yl)-carbamic acid butyl ester]
14 | 23% | CC(C)COC(=O)Nc1nc2ccc(OC(F)(F)F)cc2s1 [Cpd 16, (6-Trifluoromethoxy-benzothiazol-2-yl)-carbamic acid isobutyl ester]

test: Metabolic stability in pooled human liver microsomes; assay type: in vitro ADME; conditions: human liver microsomes 0.5 mg/mL, 1 uM, 37° C., NADPH
Description: as §2, §3

Row | Metabolic Stability human (30 minutes): percent of prodrug metabolized to riluzole | Structure (SMILES)
15 | 7% | NCC(=O)Nc1nc2ccc(OC(F)(F)F)cc2s1 [Cpd 1, 2-Amino-N-(6-trifluoromethoxy-benzothiazol-2-yl)-acetamide]
16 | 0% | N[C@H](COCc1ccccc1)C(=O)Nc1nc2ccc(OC(F)(F)F)cc2s1 [Cpd 5, (R)-2-Amino-3-benzyloxy-N-(6-trifluoromethoxy-benzothiazol-2-yl)-propionamide]
17 | 0% | N[C@@H](Cc1ccccc1)C(=O)Nc1nc2ccc(OC(F)(F)F)cc2s1 [Cpd 9, (S)-2-Amino-3-phenyl-N-(6-trifluoromethoxy-benzothiazol-2-yl)-propionamide]
18 | 13% | CCCCOC(=O)Nc1nc2ccc(OC(F)(F)F)cc2s1 [Cpd 15, (6-Trifluoromethoxy-benzothiazol-2-yl)-carbamic acid butyl ester]
19 | 14% | CC(C)COC(=O)Nc1nc2ccc(OC(F)(F)F)cc2s1 [Cpd 16, (6-Trifluoromethoxy-benzothiazol-2-yl)-carbamic acid isobutyl ester]

test: Plasma stability in fresh mouse plasma; assay type: in vitro ADME; conditions: 1 uM, 37° C.
Description: (§4) Plasma Stability: Assessment of plasma stability was carried out by individual incubations of drug candidates in fresh mouse or human control plasma at a concentration of 1 uM for 1 hour at 37° C. After which, the samples were de-proteinized by addition of 2 volumes of acetonitrile containing 0.1% formic acid and internal standard, vortex mixed for 2 minutes and centrifuged at 4000 rpm for 10 minutes to pellet precipitated protein. The resulting supernatant containing the drug candidates was diluted 5-fold with water containing 0.1% formic acid and submitted to LC-MS/MS analysis. All determinations were done in triplicate. […]
as §3

Row | Plasma Stability mouse (1 hour): percent of prodrug metabolized to riluzole | Structure (SMILES)
20 | 11% | NCC(=O)Nc1nc2ccc(OC(F)(F)F)cc2s1 [Cpd 1, 2-Amino-N-(6-trifluoromethoxy-benzothiazol-2-yl)-acetamide]
21 | 25% | N[C@H](COCc1ccccc1)C(=O)Nc1nc2ccc(OC(F)(F)F)cc2s1 [Cpd 5, (R)-2-Amino-3-benzyloxy-N-(6-trifluoromethoxy-benzothiazol-2-yl)-propionamide]
22 | 0% | N[C@@H](Cc1ccccc1)C(=O)Nc1nc2ccc(OC(F)(F)F)cc2s1 [Cpd 9, (S)-2-Amino-3-phenyl-N-(6-trifluoromethoxy-benzothiazol-2-yl)-propionamide]
23 | 9% | CCCCOC(=O)Nc1nc2ccc(OC(F)(F)F)cc2s1 [Cpd 15, (6-Trifluoromethoxy-benzothiazol-2-yl)-carbamic acid butyl ester]
24 | 0% | CC(C)COC(=O)Nc1nc2ccc(OC(F)(F)F)cc2s1 [Cpd 16, (6-Trifluoromethoxy-benzothiazol-2-yl)-carbamic acid isobutyl ester]

test: Plasma stability in fresh human plasma; assay type: in vitro ADME; conditions: 1 uM, 37° C.
Description: as §4, §3

Row | Plasma Stability Human (1 hour): percent of prodrug metabolized to riluzole | Structure (SMILES)
25 | 3% | NCC(=O)Nc1nc2ccc(OC(F)(F)F)cc2s1 [Cpd 1, 2-Amino-N-(6-trifluoromethoxy-benzothiazol-2-yl)-acetamide]
26 | 3% | N[C@H](COCc1ccccc1)C(=O)Nc1nc2ccc(OC(F)(F)F)cc2s1 [Cpd 5, (R)-2-Amino-3-benzyloxy-N-(6-trifluoromethoxy-benzothiazol-2-yl)-propionamide]
27 | 7% | N[C@@H](Cc1ccccc1)C(=O)Nc1nc2ccc(OC(F)(F)F)cc2s1 [Cpd 9, (S)-2-Amino-3-phenyl-N-(6-trifluoromethoxy-benzothiazol-2-yl)-propionamide]
28 | 0% | CCCCOC(=O)Nc1nc2ccc(OC(F)(F)F)cc2s1 [Cpd 15, (6-Trifluoromethoxy-benzothiazol-2-yl)-carbamic acid butyl ester]
29 | 0% | CC(C)COC(=O)Nc1nc2ccc(OC(F)(F)F)cc2s1 [Cpd 16, (6-Trifluoromethoxy-benzothiazol-2-yl)-carbamic acid isobutyl ester]
